The text below walks through data of patent US8415358B2, “Pyrazine derivatives and their use as potassium channel modulators” (Neurosearch A/S, priority 2007, dated 2013).

The melting point is the temperature, or range, at which the solid turns liquid.

Test system in the first data set: not given
Experiment: not given
Settings: not given
Turning to `Clc1ccc(Nc2cncc(-n3cccn3)n2)cc1` [Compound 3, (4-Chloro-phenyl)-(6-pyrazol-1-yl-pyrazin-2-yl)-amine], the melting point fell in the range of 155 to 157 °C.
On the same count and under the same terms, with `Clc1ccc(Nc2cncc(-n3cc4ccccc4n3)n2)cc1` [Compound 3.1, (4-Chloro-phenyl)-(6-indazol-2-yl-pyrazin-2-yl)-amine] the figure was 249 to 252 °C.
Same read-out and setting: with `Clc1ccc(Nc2cncc(-n3ncc4ccccc43)n2)cc1` [Compound 3.2, (4-Chloro-phenyl)-(6-indazol-1-yl-pyrazin-2-yl)-amine] the figure was 204 to 207 °C.
On the same count and under the same terms, to `Cc1cc(C)n(-c2cncc(Nc3ccc(Cl)cc3)n2)n1` [Compound 4, (4-Chloro-phenyl)-[6-(3,5-dimethyl-pyrazol-1-yl)-pyrazin-2-yl]-amine] belongs 157 to 158.9 °C; to `Cc1cccc(-c2cncc(Nc3ccc(Cl)cc3)n2)n1` [Compound 8.1, (4-Chloro-phenyl)-[6-(6-methyl-pyridin-2-yl)-pyrazin-2-yl]-amine], 186 to 188 °C.
`Cc1cc(C)n(-c2cnc(CN(C)C)c(Nc3ccc(Cl)cc3)n2)n1` [Compound 14.1, (4-Chloro-phenyl)-[3-dimethylaminomethyl-6-(3,5-dimethyl-pyrazol-1-yl)-pyrazin-2-yl]-amine] yielded a melting point of 112 to 114 °C.
The same measure, in the same setting: with `COCc1ncc(-n2nc(C)cc2C)nc1Nc1ccc(Cl)cc1` [Compound 16.1, (4-Chloro-phenyl)-[6-(3,5-dimethyl-pyrazol-1-yl)-3-methoxymethyl-pyrazin-2-yl]-amine] the figure was 105 to 108 °C; with `COCc1ncc(Nc2ccc(Cl)cc2)nc1-n1nc(C)cc1C` [Compound 17.1], 147 to 151 °C.
As to `Cc1cc(C)n(-c2cnc(/C=N/O)c(Nc3ccc(Cl)cc3)n2)n1` [Compound 20.1, 3-(4-Chloro-phenylamino)-5-(3,5-dimethyl-pyrazol-1-yl) -pyrazine-2-carbaldehyde oxime], the melting point was in the range of 228 to 231 °C.
On the same count and under the same terms, with `Cc1cc(C)n(-c2cnc(CN)c(Nc3ccc(Cl)cc3)n2)n1` [Compound 21.1, [3-Aminomethyl-6-(3,5-dimethyl-pyrazol-1-yl)-pyrazin-2-yl]-(4-chloro-phenyl)-amine] the figure was 156 to 160 °C; with `CC(=O)NCc1ncc(-n2nc(C)cc2C)nc1Nc1ccc(Cl)cc1` [Compound 22.1, N-[3-(4-Chloro-phenylamino)-5-(3,5-dimethyl-pyrazol-1-yl)-pyrazin-2-ylmethyl]-acetamide], 228 to 230 °C; with `CCNc1ncc(Nc2ccc(Cl)cc2)nc1-n1nc(C)cc1C` [Compound 27.2, 5-(4-Chloro-phenylamino)-3-(3,5-dimethyl-pyrazol-1-yl)-2-ethylamino-pyrazine], 122 to 124 °C.

The target in the next data set is T1, hSK3 channels (Homo sapiens, UniProt Q9UGI6).
T1 construct: expressed in transfected cells; host or cells: HEK293
As to the kind of experiment: Whole-cell patch-clamp recording of ionic current through SK channels (subtype 3) in HEK293 cells expressing hSK3. The note with it: Stimulating Concentration required for increasing the baseline current by 100%, current at -75 mV, free Ca2+ 0.3-0.4 μM, room temperature. Format: cell-based. On the procedure: The ionic current through small-conductance Ca^2+-activated K^+ channels (SK channels, subtype 3) is recorded using the whole-cell configuration of the patch-clamp technique.
HEK293 tissue culture cells expressing hSK3 channels were grown in DMEM (Dulbecco's Modified Eagle Medium) supplemented with 10% FCS (foetal calf serum) at 37° C. in 5% CO2. At 60-80% confluency, cells were harvested by trypsin treatment and seeded on cover slips.
Experiments are carried out on one of several patch-clamp set-ups. Cells plated on coverslips are placed in a 15 μl perfusion chamber (flowrate ˜1 ml/min) mounted on an IMT-2 microscope. The microscopes are placed on vibration-free tables in grounded Faraday cages. All experiments are performed at room temperature (20-22° C.). EPC-9 patch-clamp amplifiers (HEKA-electronics, Lambrect, Germany) are connected to Macintosh computers via ITC16 interfaces. Data are stored directly on the hard-disk and analysed by IGOR software (Wavemetrics, Lake Oswega, Oreg., USA).
The whole-cell configuration of the patch-clamp technique is applied. In short: The tip of a borosilicate pipette (resistance 2-4 MΩ) is gently placed on the cell membrane using remote control systems. Light suction results in the formation of a giga seal (pipette resistance increases to more than 1 GΩ) and the cell membrane underneath the pipette is then ruptured by more powerful suction. Cell capacitance is electronically compensated and the resistance between the pipette and the cell interior (the series resistance, Rs) is measured and compensated for. […]
The intracellular (pipette) solution contained: 154 mM KCl, 10 mM HEPES, 10 mM EGTA. Concentrations of CaCl2 and MgCl2 needed to obtain the desired free concentrations of Ca^2+ (0.3-0.4 μM, Mg^2+ always 1 mM) were calculated by EqCal software (Cambridge, UK) and added.
After establishment of the whole-cell configuration, voltage-ramps (normally −80 to +80 mV) are applied to the cell every 5 seconds from a holding potential of 0 mV. […] Active compounds are quantified by calculating the change in baseline current at −75 mV. […]
Background: In patch-clamp work, channel activity is measured electrically.
On to `Cc1cc(C)n(-c2cncc(Nc3ccc(Cl)cc3)n2)n1` [Compound 4, (4-Chloro-phenyl)-[6-(3,5-dimethyl-pyrazol-1-yl)-pyrazin-2-yl]-amine], for which the SC100 came to 0.25 µM.
The molecule `Clc1ccc(Nc2cncc(-c3nccs3)n2)cc1` [Compound 8.4, (4-Chloro-phenyl)-(6-thiazol-2-yl-pyrazin-2-yl)-amine] registered an SC100 of 0.30 µM.
As to `Cc1cc(C)n(-c2cnc(/C=N/O)c(Nc3ccc(Cl)cc3)n2)n1` [Compound 20.1, 3-(4-Chloro-phenylamino)-5-(3,5-dimethyl-pyrazol-1-yl) -pyrazine-2-carbaldehyde oxime], the SC100 stood at 0.075 µM.
